Laboratory results as given in US6407041B1, “Substituted 2,4-diamino-1,3,5-triazines” (Bayer Aktiengesellschaft, priority 1997, dated 2002).
Each block holds one compound with its values, some of them ahead of it.

What was measured:
weeds [1] = assay: Pre-emergence test, overall action; format: in vivo; details: result in words
Experimental: (§1) Solvent: 5 parts by weight of acetone
(§2) Emulsifier: 1 part by weight of alkylaryl polyglycol ether
(§3) To produce a suitable preparation of active compound, 1 part by weight of active compound is mixed with the stated amount of solvent, the stated amount of emulsifier is added and the concentrate is diluted with water to the desired concentration.
(§4) Seeds of the test plants are sown in normal soil. After about 24 hours, the soil is sprayed with the preparation of active compound such that the particular amounts of active compound desired are applied per unit area. The concentration of the spray liquor is chosen so that the particular amounts of active compound desired are applied in 1000 l of water/ha.
(§5) After three weeks, the degree of damage to the plants is rated in % damage in comparison with the development of the untreated control.
(§6) 0%=no effect (like untreated control)

weeds [2] = assay: Post-emergence test, overall action; format: in vivo; details: result in words
Experimental: as §1, §2
(§7) To produce a suitable preparation of active compound, I part by weight of active compound is mixed with the stated amount of solvent, the stated amount of emulsifier is added and the concentrate is diluted with water to the desired concentration.
(§8) Test plants having a height of 5-15 cm are sprayed with the preparation of active compound such that the particular amounts of active compound desired are applied per unit area. The concentration of the spray liquor is chosen so that the particular amounts of active compound desired are applied in 1000 l of water/ha.
as §5, §6

Abutilon [3] = assay: Pre-emergence test (greenhouse); format: in vivo; details: 1000 g of ai./ha, rated after three weeks vs untreated control, 0%=no effect, 100%=total destruction
Experimental: as §1, §2, §3, §4, §5, §6

Galium [4] = assay: Pre-emergence test (greenhouse); format: in vivo; details: 1000 g of ai./ha, rated after three weeks vs untreated control, 0%=no effect, 100%=total destruction
Experimental: as §1, §2, §3, §4, §5, §6

Alopecurus [5] = assay: Pre-emergence test (greenhouse); format: in vivo; details: 1000 g of ai./ha, rated after three weeks vs untreated control, 0%=no effect, 100%=total destruction
Experimental: as §1, §2, §3, §4, §5, §6

Sinapis [6] = assay: Pre-emergence test (greenhouse); format: in vivo; details: 1000 g of ai./ha, rated after three weeks vs untreated control, 0%=no effect, 100%=total destruction
Experimental: as §1, §2, §3, §4, §5, §6

Setaria = assay: Pre-emergence test (greenhouse); format: in vivo; details: 1000 g of ai./ha, rated after three weeks vs untreated control, 0%=no effect, 100%=total destruction
Experimental: as §1, §2, §3, §4, §5, §6

Amaranthus [7] = assay: Pre-emergence test (greenhouse); format: in vivo; details: 1000 g of ai./ha, rated after three weeks vs untreated control, 0%=no effect, 100%=total destruction
Experimental: as §1, §2, §3, §4, §5, §6

Maize = assay: Pre-emergence test (greenhouse), crop plant; format: in vivo; details: 1000 g of ai./ha, rated after three weeks vs untreated control, 0%=no effect, 100%=total destruction
Experimental: as §1, §2, §3, §4, §5, §6

Abutilon [8] = assay: Post-emergence test/greenhouse; format: in vivo; details: 1000 g of ai./ha, test plants 5-15 cm, rated after three weeks vs untreated control, 0%=no effect, 100%=total destruction
Experimental: as §1, §2, §7, §8, §5, §6

Galium [9] = assay: Post-emergence test/greenhouse; format: in vivo; details: 1000 g of ai./ha, test plants 5-15 cm, rated after three weeks vs untreated control, 0%=no effect, 100%=total destruction
Experimental: as §1, §2, §7, §8, §5, §6

Alopecurus [10] = assay: Post-emergence test/greenhouse; format: in vivo; details: 1000 g of ai./ha, test plants 5-15 cm, rated after three weeks vs untreated control, 0%=no effect, 100%=total destruction
Experimental: as §1, §2, §7, §8, §5, §6

Sinapis [11] = assay: Post-emergence test/greenhouse; format: in vivo; details: 1000 g of ai./ha, test plants 5-15 cm, rated after three weeks vs untreated control, 0%=no effect, 100%=total destruction
Experimental: as §1, §2, §7, §8, §5, §6

Amaranthus [12] = assay: Post-emergence test/greenhouse; format: in vivo; details: 1000 g of ai./ha, test plants 5-15 cm, rated after three weeks vs untreated control, 0%=no effect, 100%=total destruction
Experimental: as §1, §2, §7, §8, §5, §6

Compound: CCC(COCc1ccccc1)Nc1nc(N)nc(C(C)(C)F)n1 (centres unmarked) [drawing 495]
degree of damage to the plants, Abutilon (Abutilon [3]): 100% | degree of damage to the plants, Galium (Galium [4]): 100% | degree of damage to the plants, Alopecurus (Alopecurus [5]): 100% | degree of damage to the plants, Sinapis (Sinapis [6]): 100% | degree of damage to the plants, Setaria (Setaria): 100% | degree of damage to the plants, Amaranthus (Amaranthus [7]): 100%

Compound: CCC(COCc1cccc(Cl)c1)Nc1nc(N)nc(C(C)(C)F)n1 (centres unmarked) [drawing 496]
degree of damage to the plants, Abutilon (Abutilon [3]): 95% | degree of damage to the plants, Alopecurus (Alopecurus [5]): 95% | degree of damage to the plants, Sinapis (Sinapis [6]): 90% | degree of damage to the plants, Amaranthus (Amaranthus [7]): 100% | degree of damage to the plants, Maize (Maize): 10%

Compound: CCC(COCc1ccccc1)Nc1nc(N)nc(C(C)(C)F)n1 (centres unmarked) [drawing 497]
degree of damage to the plants, Abutilon (Abutilon [8]): 100% | degree of damage to the plants, Galium (Galium [9]): 90% | degree of damage to the plants, Alopecurus (Alopecurus [10]): 95% | degree of damage to the plants, Sinapis (Sinapis [11]): 100% | degree of damage to the plants, Amaranthus (Amaranthus [12]): 100%

Compound: CCC(COCc1cccc(Cl)c1)Nc1nc(N)nc(C(C)(C)F)n1 (centres unmarked) [drawing 498]
degree of damage to the plants, Abutilon (Abutilon [8]): 100% | degree of damage to the plants, Galium (Galium [9]): 95% | degree of damage to the plants, Alopecurus (Alopecurus [10]): 100% | degree of damage to the plants, Sinapis (Sinapis [11]): 100% | degree of damage to the plants, Amaranthus (Amaranthus [12]): 100%

The next lines start with results.

melting point: 96 °C
Compound: CCc1nc(N)nc(NC(CC)COCc2ccc(F)cc2)n1 (racemic) [Example 1, 2-amino-4-ethyl-6-[1-(4-fluorobenzyloxymethyl)-propylamino]-1,3,5-triazine]

melting point: 108 °C
Compound: CCC(COCc1ccccc1C)Nc1nc(NC(C)=O)nc(C(C)(C)F)n1 (racemic) [Example 2]

melting point: 114 °C
Compound: CCC(COCc1ccccc1)Nc1nc(N)nc(C(C)(C)F)n1 (centres unmarked) [Example 8]
action against weeds (weeds [1]): very strong action against weeds | action against weeds (weeds [2]): very strong action against weeds

melting point: 104 °C
Compound: CCC(COCc1cccc(Cl)c1)Nc1nc(N)nc(C(C)(C)F)n1 (centres unmarked) [Example 14]
action against weeds (weeds [1]): very strong action against weeds | action against weeds (weeds [2]): very strong action against weeds
